# Source: patent US10508120B2, “TYK2 inhibitors and uses thereof” (Nimbus Lakshmi, Inc., priority 2017, dated 2019)
# Columns and labels:
# Tyk2 kinase domain (DH1) = Tyk2 kinase domain (DH1) (Homo sapiens (Human), UniProt P29597); assay: Tyk2 Radioactive Kinase Assay; assay type: biochemical; details: compound at 10 μM; ATP 10 μM; read-out: Tyk2 JH1% Inhibition @ 10 μM
# Procedure, shortened: (§1)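 Single-point screen: 10 μM test compound, radioactive kinase read-out, percent inhibition reported for each kinase domain.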
# [1] = biological target: Tyk2/JAK2 (heterodimeric complex) (Homo sapiens (Human), UniProt P29597); assay: IL-12 Induced pSTAT4 in Human PBMC; assay type: cell-based; details: 1.7 ng/mL IL-12
# Text: The IL-12 Induced pSTAT4 assay evaluates the inhibition of IL-12 induced STAT4 phophorylation mediated by Tyk2/JAK2 (heterodimeric complex).
# [2] = biological target: JAK2/JAK2 homdimeric complex (Homo sapiens (Human), UniProt O60674); assay: GM-CSF Induced pSTAT5 in Human PBMC; assay type: cell-based; details: GM-CSF 5 ng/mL for 20 minutes, pSTAT5 by MSD, read-out: PBMC_GMCSF_pSTAT5 IC50
# [3] = biological target: human TYK2 (JH2domain-pseudokinase) (Homo sapiens (Human), UniProt P29597); assay: TYK2 JH2 Domain Binding Assay (KINOMEscan)
# Procedure, shortened: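 The construct was human TYK2 G556–D888 fused to the NFkB DNA-binding domain and expressed in HEK293 cells; unpurified extract was incubated with compound and liganded beads for 1 hour at room temperature.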
# JAK2 kinase domain (JH1) = JAK2 kinase domain (JH1) (Homo sapiens (Human), UniProt O60674); assay: JAK2 Radioactive Kinase Assay; assay type: biochemical; details: compound at 10 μM; ATP 10 μM; read-out: JAK2 JH1% Inhibition @ 10 μM
# Procedure, shortened: as §1
# Chain of human TYK2 (JH2domain-pseudokinase) (P29597 556-888): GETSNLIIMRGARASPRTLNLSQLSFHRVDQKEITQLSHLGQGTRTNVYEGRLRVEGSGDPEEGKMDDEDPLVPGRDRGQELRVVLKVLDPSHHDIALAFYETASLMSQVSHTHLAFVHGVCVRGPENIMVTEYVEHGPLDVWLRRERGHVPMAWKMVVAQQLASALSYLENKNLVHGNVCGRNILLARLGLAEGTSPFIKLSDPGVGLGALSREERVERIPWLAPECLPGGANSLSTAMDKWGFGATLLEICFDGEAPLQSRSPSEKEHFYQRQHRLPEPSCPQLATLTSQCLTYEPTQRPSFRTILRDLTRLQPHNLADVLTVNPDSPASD
# Chain of Tyk2/JAK2 (heterodimeric complex) (P29597 whole entry, other chains not shown): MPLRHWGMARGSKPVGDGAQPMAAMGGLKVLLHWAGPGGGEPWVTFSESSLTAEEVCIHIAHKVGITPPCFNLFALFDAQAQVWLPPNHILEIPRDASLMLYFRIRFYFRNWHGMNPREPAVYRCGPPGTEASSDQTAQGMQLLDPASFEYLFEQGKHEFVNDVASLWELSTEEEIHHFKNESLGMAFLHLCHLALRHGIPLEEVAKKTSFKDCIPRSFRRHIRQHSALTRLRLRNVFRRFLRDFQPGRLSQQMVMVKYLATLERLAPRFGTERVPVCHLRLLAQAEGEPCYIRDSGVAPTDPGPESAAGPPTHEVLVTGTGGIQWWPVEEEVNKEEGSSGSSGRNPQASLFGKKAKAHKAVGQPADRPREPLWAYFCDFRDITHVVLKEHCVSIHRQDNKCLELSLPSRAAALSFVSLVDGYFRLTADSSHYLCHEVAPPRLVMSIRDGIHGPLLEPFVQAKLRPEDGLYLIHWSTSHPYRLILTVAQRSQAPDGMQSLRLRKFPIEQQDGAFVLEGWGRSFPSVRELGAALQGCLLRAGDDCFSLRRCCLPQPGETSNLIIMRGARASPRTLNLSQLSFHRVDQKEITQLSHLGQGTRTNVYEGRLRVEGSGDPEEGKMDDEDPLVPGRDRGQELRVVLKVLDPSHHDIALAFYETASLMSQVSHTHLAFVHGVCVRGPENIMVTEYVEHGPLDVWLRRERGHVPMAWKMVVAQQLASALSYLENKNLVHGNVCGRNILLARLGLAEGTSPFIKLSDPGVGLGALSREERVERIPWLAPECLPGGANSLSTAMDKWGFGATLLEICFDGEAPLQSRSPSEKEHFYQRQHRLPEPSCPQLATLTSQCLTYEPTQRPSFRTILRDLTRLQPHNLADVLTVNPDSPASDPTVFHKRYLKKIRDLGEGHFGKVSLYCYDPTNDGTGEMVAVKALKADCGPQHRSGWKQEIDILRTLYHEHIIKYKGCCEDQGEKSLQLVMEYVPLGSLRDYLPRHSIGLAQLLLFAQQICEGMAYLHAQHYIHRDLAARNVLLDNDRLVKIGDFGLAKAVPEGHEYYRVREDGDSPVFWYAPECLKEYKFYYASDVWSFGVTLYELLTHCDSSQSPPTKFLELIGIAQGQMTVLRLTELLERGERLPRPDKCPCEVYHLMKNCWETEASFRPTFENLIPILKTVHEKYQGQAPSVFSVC
# Chain of JAK2/JAK2 homdimeric complex (O60674 whole entry, the tested form may be a part): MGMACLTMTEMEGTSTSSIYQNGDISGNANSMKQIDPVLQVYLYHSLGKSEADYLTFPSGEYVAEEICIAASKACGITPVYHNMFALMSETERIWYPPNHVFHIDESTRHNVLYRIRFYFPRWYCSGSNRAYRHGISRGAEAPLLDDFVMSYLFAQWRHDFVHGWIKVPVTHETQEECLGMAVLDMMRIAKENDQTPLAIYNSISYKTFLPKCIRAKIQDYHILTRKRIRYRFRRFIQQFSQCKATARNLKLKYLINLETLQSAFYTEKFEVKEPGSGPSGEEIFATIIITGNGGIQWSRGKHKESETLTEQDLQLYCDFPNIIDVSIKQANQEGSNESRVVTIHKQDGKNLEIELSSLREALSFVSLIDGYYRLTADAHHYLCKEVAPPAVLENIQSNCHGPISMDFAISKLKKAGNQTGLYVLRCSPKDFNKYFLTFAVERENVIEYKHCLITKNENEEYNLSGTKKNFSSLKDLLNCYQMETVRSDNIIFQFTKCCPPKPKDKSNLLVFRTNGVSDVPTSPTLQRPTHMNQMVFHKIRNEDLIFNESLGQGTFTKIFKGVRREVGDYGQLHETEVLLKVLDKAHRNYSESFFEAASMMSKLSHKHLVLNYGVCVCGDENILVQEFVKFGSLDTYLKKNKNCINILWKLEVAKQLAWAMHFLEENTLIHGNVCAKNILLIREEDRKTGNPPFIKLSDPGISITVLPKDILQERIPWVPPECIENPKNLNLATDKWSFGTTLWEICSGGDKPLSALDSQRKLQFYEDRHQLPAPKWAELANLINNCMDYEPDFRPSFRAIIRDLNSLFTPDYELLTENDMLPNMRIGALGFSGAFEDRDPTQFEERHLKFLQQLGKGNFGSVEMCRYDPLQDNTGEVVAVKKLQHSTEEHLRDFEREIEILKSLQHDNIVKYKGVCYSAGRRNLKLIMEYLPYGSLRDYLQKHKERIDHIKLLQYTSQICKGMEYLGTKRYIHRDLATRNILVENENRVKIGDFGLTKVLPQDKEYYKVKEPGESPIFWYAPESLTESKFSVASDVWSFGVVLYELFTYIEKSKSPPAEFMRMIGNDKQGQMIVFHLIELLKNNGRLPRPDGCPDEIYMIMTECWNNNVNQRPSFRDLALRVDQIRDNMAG
# Chain of JAK2/JAK2 homdimeric complex (P32927 17-897 partner): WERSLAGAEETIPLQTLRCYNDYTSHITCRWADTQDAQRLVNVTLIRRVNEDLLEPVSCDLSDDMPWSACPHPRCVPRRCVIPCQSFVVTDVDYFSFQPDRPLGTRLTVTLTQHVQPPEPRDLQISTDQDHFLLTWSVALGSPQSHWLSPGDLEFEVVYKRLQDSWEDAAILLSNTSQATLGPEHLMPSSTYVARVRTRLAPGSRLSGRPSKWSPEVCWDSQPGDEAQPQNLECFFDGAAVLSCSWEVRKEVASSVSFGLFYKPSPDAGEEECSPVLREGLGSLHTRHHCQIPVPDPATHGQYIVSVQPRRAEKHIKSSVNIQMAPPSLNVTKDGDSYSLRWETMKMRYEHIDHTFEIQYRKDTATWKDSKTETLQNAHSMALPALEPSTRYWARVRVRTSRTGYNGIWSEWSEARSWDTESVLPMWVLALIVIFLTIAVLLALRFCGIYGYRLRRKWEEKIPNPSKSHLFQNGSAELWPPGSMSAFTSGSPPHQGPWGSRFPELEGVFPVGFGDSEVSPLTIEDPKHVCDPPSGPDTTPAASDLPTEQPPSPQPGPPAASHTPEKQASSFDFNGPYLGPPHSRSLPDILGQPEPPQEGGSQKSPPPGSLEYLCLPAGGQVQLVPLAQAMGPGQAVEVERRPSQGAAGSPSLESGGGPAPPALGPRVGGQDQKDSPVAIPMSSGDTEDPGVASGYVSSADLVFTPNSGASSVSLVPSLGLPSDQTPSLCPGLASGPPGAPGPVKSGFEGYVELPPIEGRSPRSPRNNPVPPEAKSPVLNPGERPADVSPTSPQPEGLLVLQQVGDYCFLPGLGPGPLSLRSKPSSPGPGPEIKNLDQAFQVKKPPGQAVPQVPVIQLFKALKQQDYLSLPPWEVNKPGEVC
# Chain of Tyk2 kinase domain (DH1) (P29597 897-1176): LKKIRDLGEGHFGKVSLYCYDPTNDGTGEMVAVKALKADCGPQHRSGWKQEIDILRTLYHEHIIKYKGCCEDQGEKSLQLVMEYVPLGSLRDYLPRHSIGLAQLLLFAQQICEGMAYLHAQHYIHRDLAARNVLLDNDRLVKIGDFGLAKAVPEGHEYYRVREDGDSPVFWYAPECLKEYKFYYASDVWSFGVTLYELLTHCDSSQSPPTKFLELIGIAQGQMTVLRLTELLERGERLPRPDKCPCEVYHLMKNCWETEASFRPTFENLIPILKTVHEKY
# Chain of JAK2 kinase domain (JH1) (O60674 849-1124): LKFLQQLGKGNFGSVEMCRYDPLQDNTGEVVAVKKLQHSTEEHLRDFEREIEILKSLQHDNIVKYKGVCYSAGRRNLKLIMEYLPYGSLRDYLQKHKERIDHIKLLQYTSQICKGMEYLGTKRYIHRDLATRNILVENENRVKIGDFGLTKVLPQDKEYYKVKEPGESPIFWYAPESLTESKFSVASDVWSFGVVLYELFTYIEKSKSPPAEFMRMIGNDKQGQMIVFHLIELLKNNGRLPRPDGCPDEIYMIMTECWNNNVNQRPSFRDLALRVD
SMILES,inhibition at 10 µM (Tyk2 kinase domain (DH1)),IC50 [1],IC50 [2],Kd [3],inhibition at 10 µM (JAK2 kinase domain (JH1))
CNc1cc(Nc2cccn(-c3ccc(C4CC4)nn3)c2=O)nc2c(C(=O)NC3CCC3)cnn12 [I-240],< 50%,< 100 nM,> 2500 nM,< 0.2 nM,< 50%
CNc1cc(Nc2cccn(-c3nccs3)c2=O)nc2c(C(=O)N[C@H]3C[C@H]3F)cnn12 [I-243],< 50%,< 100 nM,> 2500 nM,0.2 to 1 nM,< 50%
CNc1cc(Nc2cccc(N3CCCC3=O)n2)nc2c(C(=O)N[C@H]3C[C@H]3F)cnn12 [I-244],< 50%,< 100 nM,> 12500 nM,< 0.2 nM,< 50%
CNc1cc(Nc2cccn(-c3ccc(F)cc3)c2=O)nc2c(C(=O)NC3CCC3)cnn12 [I-246],< 50%,< 100 nM,> 2500 nM,< 0.2 nM,< 50%
CNc1cc(Nc2cc(C)cn(-c3ccn(C)n3)c2=O)nc2c(C(=O)N[C@H]3C[C@H]3F)cnn12 [I-250],< 50%,< 100 nM,> 12500 nM,< 0.2 nM,< 50%
[2H]C([2H])([2H])Oc1ncc(C)cc1Nc1cc(NC)n2ncc(C(=O)N[C@H]3C[C@H]3F)c2n1 [I-259],< 50%,< 100 nM,> 12500 nM,< 0.2 nM,< 50%
CNc1cc(Nc2cccn(-c3ncc(C)s3)c2=O)nc2c(C(=O)N[C@H]3C[C@H]3F)cnn12 [I-262],< 50%,< 100 nM,> 2500 nM,< 0.2 nM,< 50%
CNc1cc(Nc2cccn(-c3ccc(OC)cn3)c2=O)nc2c(C(=O)N[C@H]3C[C@H]3F)cnn12 [I-265],< 50%,< 100 nM,> 12500 nM,< 0.2 nM,< 50%
CNc1cc(Nc2cccn(CCOC)c2=O)nc2c(C(=O)NC3CCC3)cnn12 [I-269],< 50%,< 100 nM,> 50000 nM,< 0.2 nM,< 50%
"CNc1cc(-c2cn(C(C)C)c3ncc(Cl)cc23)nc2c(C(N)=O)cnn12 [I-272, 5-(5-chloro-1-isopropyl-1H-pyrrolo[2,3-b]pyridin-3-yl)-7-(methylamino) pyrazolo[1,5-a]pyrimidine-3-carboxamide]",< 50%,< 100 nM,> 12500 nM,< 0.2 nM,< 50%

# Further lines, results first:
inhibition at 10 µM (Tyk2 kinase domain (DH1)),IC50 [1],IC50 [2],Kd [3],inhibition at 10 µM (JAK2 kinase domain (JH1)),SMILES
< 50%,< 100 nM,> 50000 nM,< 0.2 nM,< 50%,CNc1cc(Nc2cccn(-c3ccc(F)cn3)c2=O)nc2c(C(=O)NC3CCC3)cnn12 [I-238]
< 50%,< 100 nM,> 50000 nM,< 0.2 nM,< 50%,CNc1cc(-c2cn(C(C)C)c3ncc(C)cc23)nc2c(C(N)=O)cnn12 [I-255]
< 50%,< 100 nM,> 50000 nM,< 0.2 nM,< 50%,[2H]C([2H])([2H])Oc1ncc(C)cc1Nc1cc(NC)n2ncc(C(=O)NC3CC3)c2n1 [I-258]
< 50%,< 100 nM,> 2500 nM,0.2 to 1 nM,< 50%,"CNc1cc(Nc2cccn(-c3ncc(C)s3)c2=O)nc2c(C(=O)NC3CC3)cnn12 [I-261, N-cyclopropyl-7-(methylamino)-5-((1-(5-methylthiazol-2-yl)-2-oxo-1,2-dihydropyridin-3-yl)amino)pyrazolo[1,5-a]pyrimidine-3-carboxamide]"
< 50%,< 100 nM,> 2500 nM,< 0.2 nM,< 50%,CNc1cc(Nc2cccn(-c3ncc(C)s3)c2=O)nc2c(C(=O)NC3CCC3)cnn12 [I-263]
< 50%,< 100 nM,> 12500 nM,< 0.2 nM,< 50%,CNc1cc(Nc2cccn(-c3ccc(OC)cn3)c2=O)nc2c(C(=O)NC3CCC3)cnn12 [I-266]
